Experimental findings from patent publication US20140274713A1, “IONIC LIQUIDS AND USES THEREOF” (OMS Investments, Inc., priority 2013, published 2014) are described below.

The nature of this series: Dissolution in Dowanol DPM under high shear. The class given is physicochemical. The conditions noted are these: Dowanol DPM (dipropylene glycol methyl ether).

For the molecule `COC(=O)c1ccccc1S(=O)(=O)NC(=O)Nc1nc(C)nc(OC)n1` [MSM, methsulfuron methyl], the “Dissolution in Dowanol DPM” value is reported as “did not dissolve”.
